What is called IC50 is the point on the concentration scale where inhibition reaches its midpoint. As a reminder, the AC50 is the midpoint of the concentration-response curve, whichever way the signal moves.

Test [1] concerns SARS-CoV-2 PP entry into HEK293-ACE2 cells. Briefly: microbe, parasite or virus in culture. The class given is cell-based.
The test system of a further test is SARS-CoV-2 live virus. Description: microbe, parasite or virus in culture. The class given is cell-based.
Test [2] concerns the target T1, SARS-CoV-2 3CL protease (Severe acute respiratory syndrome coronavirus 2, UniProt P0DTD1). It is filed as biochemical. Particulars: read-out: IC50, 3CL protease assay.
Test [3] concerns the target T1, SARS-CoV-2 3CL protease. Particulars: read-out: IC50, 3CL protease; finding of Sun et al.; cited from earlier work.
Setting [4] is: read-out: AC50 (potency), CPE assay.
The mark [5] stands for this setting: Severe acute respiratory syndrome coronavirus 2, read-out: IC50, PP entry assay.
[6] abbreviates: Severe acute respiratory syndrome coronavirus 2, read-out: AC50 (potency), CPE assay.

SMILES strings stand for the structures. Where two headings read alike, the source gives them in different places. Peptide text beside a SMILES is read from it. * marks the point of attachment. Cbz = O=C(OCc1ccccc1)*; CH2F = FC*

As for `CCN(CC)CCCNc1ccnc2cc(Cl)ccc12` [NCGC00599688, AQ-13], in test [1] (read-out: IC50, PP entry assay), the IC50 is 14.2 ± 11.7 µM. In the test on SARS-CoV-2 live virus (setting [4]), the AC50 turned out to be 3.98 µM.

On to `CC[C@@]1(O)C(=O)OCc2c1cc1n(c2=O)Cc2c-1nc1cc(F)c(C)c3c1c2[C@@H](N)CC3` [NCGC00390584, Exatecan], for which the IC50 in test [1] (setting [5]) was 0.0031 µM.

With `CCN(CC)Cc1cc(Nc2ccnc3cc(Cl)ccc23)ccc1O` [NCGC00017063, Amodiaquine], the “efficacy, PP entry assay” value in test [1] was 103%. For the same compound, in test [1] (setting [5]), the IC50 was determined as 19 µM. The AC50 in the test on SARS-CoV-2 live virus (setting [6]) worked out at 4.14 ± 1.41 µM.

On to `C=C(c1ccc(C(=O)O)c(F)c1)c1cc2c(cc1C)C(C)(C)CCC2(C)C` [NCGC00371011, Fluorobexarotene], for which the IC50 at SARS-CoV-2 3CL protease [2] amounted to 28.9 ± 2.35 µM.

`COC(=O)C[C@H](NC(=O)[C@H](CCSC)NC(=O)[C@H](CCC(N)=O)NC(=O)[C@H](CC(=O)OC)NC(=O)OCc1ccccc1)C(=O)CF` [NCGC00390337, Z-DQMD-FMK] (Cbz-D(OMe)QMD(OMe)-CH2F): the IC50 was 0.92 µM at SARS-CoV-2 3CL protease [2] and 0.94 µM on SARS-CoV-2 3CL protease [3].

Consider `OC(c1cc(-c2ccc(Cl)cc2)nc2ccccc12)C1CCCCN1` (centres unmarked) [NCGC00482724, Vacquinol-1], for which the AC50 in the test on SARS-CoV-2 live virus (setting [4]) is below 5 µM.

On to `COc1ccc2cc1Oc1ccc(cc1)C[C@H]1c3c(cc4c(c3Oc3cc5c(cc3OC)CCN(C)[C@@H]5C2)OCO4)CCN1C` [NCGC00161621, Cepharanthine], for which the “efficacy, PP entry assay” value in test [1] came to 102%. Also, in test [1] (setting [5]), the IC50 was determined as 6.88 µM. Further, the AC50 with SARS-CoV-2 live virus (setting [6]) was 1.41 ± 0.39 µM.

For `CCN(CC)CCCCNc1nc2cc(Cl)c(Cl)cc2nc1-c1ccc(-c2cccs2)s1` [NCGC00263128, PD 0220245], in the test on SARS-CoV-2 live virus (setting [4]), the AC50 is below 5 µM.

`Nc1nc(Nc2ccc3c(c2)CC[C@@H](N2CCCC2)CC3)nn1-c1cc2c(nn1)-c1ccccc1CCC2` [NCGC00386665, Bemcentinib]: the “efficacy, PP entry assay” value in test [1] was 112%. Also, in test [1] (setting [5]), the IC50 was determined as 19 µM. In the test on SARS-CoV-2 live virus (setting [6]), the AC50 turned out to be 3.36 µM.

Turning to `O=C(NCc1ccccc1)[C@H](Cc1ccccc1)NC(=O)[C@H]1O[C@@H]1C(=O)NCCc1ccc(O)cc1` [NCGC00345807, CAA-0225], the “efficacy, PP entry assay” value in test [1] amounted to 89%. Besides, the IC50 in test [1] (read-out: IC50, PP entry assay) was determined as 0.6 µM. In addition, the AC50 with SARS-CoV-2 live virus (setting [4]) came out at 0.2 ± 0.07 µM.

For `CCCc1cc(C)[nH]c(=O)c1CNC(=O)c1cc(-c2ccc(N3CCN(C)CC3)nc2)nc2c1cnn2C(C)C` [NCGC00590975, JQEZ5], the AC50 in the test on SARS-CoV-2 live virus (setting [4]) was below 5 µM.

On to `COc1ccc(-c2cc3c(nc2-c2ccccc2)nc(C(=O)NCCN(C)C)n3C)cn1` [NCGC00417833], for which the AC50 in the test with SARS-CoV-2 live virus (setting [4]) stood at 22 µM.

For the compound `COc1ccc(C(C)(C)C)cc1CN[C@H]1C2CCN(CC2)[C@H]1C(c1ccccc1)c1ccccc1` [NCGC00390625, Maropitant], in the test with SARS-CoV-2 live virus (setting [4]), the AC50 worked out at 3.55 ± 1.12 µM.

Source of the values: article PMC8936051 (Journal of medicinal chemistry, 2022).
